pEC50, pIC50: −log10 of the molar value.
Key:
[1] = biological target: T1, Aryl Hydrocarbon Receptor (AhR) (Homo sapiens, UniProt P35869); experiment: Aryl Hydrocarbon Receptor (AhR) Human LS180 CYP1A1 FRET; format: cell-based; conditions: LS180 cells
T1 construct: LS180 CYP1A1 FRET; endogenous in cells; host or cells: LS180
T1 sequence (P35869 11-848): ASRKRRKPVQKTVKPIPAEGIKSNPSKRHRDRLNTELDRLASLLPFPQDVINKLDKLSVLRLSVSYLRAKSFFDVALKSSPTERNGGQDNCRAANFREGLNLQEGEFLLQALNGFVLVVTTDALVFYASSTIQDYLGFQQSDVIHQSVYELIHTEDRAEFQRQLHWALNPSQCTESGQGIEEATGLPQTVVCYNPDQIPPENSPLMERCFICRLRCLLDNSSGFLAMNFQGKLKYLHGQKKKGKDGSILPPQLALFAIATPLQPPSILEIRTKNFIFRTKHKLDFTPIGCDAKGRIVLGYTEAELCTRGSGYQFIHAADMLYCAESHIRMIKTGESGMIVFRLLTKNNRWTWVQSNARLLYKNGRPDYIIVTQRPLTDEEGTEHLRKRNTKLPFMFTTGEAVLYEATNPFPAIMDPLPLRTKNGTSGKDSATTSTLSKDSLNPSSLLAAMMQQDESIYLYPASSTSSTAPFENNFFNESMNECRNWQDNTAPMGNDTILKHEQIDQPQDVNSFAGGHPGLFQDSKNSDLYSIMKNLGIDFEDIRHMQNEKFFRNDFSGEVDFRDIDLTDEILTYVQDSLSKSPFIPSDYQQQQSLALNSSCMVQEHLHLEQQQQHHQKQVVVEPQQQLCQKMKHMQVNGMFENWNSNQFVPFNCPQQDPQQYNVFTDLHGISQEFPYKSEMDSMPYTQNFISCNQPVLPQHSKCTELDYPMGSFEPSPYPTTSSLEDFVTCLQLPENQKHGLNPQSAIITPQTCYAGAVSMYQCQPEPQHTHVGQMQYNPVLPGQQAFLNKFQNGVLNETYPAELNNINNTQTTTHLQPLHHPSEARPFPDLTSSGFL
From the text: An important challenge for drug development is the generation of novel heterocyclic building blocks with suitable properties for use in screening and medicinal chemistry programs.[34] The cantharimides accessed using this methodology have appropriate physicochemical properties for lead-like compounds, including lipophilicity,[35] molecular weight and polar surface area[36] (Figure 3). Another attractive feature of these scaffolds is the high proportion of sp^3-hybridized carbon atoms, which is typically associated with improved protein binding selectivity and frequency, better solubility and a reduced chance of off-target effects.[37] Indeed, cantharimides 7, 10, endo-3 f and exo-3 f were screened against the hERG receptor (IC50>50 μM) and the aryl hydrocarbon receptor (EC50>100 μM), which are responsible for common off target effects, and no affinity was observed. […]
endo-3f Aryl Hydrocarbon Receptor (AhR) Human LS180 CYP1A1 FRET - EC50 >100
exo-3f Aryl Hydrocarbon Receptor (AhR) Human LS180 CYP1A1 FRET - EC50 >100
7 Aryl Hydrocarbon Receptor (AhR) Human LS180 CYP1A1 FRET - EC50 >100
10 Aryl Hydrocarbon Receptor (AhR) Human LS180 CYP1A1 FRET - EC50 >100
(§1) (1 picture or pasted object on this page, not shown here)

[2] = biological target: KCNH2 (human Ether-à-go-go-Related Gene) (Homo sapiens, UniProt Q12809); experiment: KCNH2 (hERG) Human Antagonist Barracuda Electrophysiology Population Patch Clamp; format: cell-based; conditions: read-out: IC50 hERG receptor (KCNH2 antagonist)
From the text: (§2) An important challenge for drug development is the generation of novel heterocyclic building blocks with suitable properties for use in screening and medicinal chemistry programs.[34] The cantharimides accessed using this methodology have appropriate physicochemical properties for lead-like compounds, including lipophilicity,[35] molecular weight and polar surface area[36] (Figure 3). Another attractive feature of these scaffolds is the high proportion of sp^3-hybridized carbon atoms, which is typically associated with improved protein binding selectivity and frequency, better solubility and a reduced chance of off-target effects.[37] Indeed, cantharimides 7, 10, endo-3 f and exo-3 f were screened against the hERG receptor (IC50>50 μM) and the aryl hydrocarbon receptor (EC50>100 μM), which are responsible for common off target effects, and no affinity was observed.
Compound Assay Parameter Value/µM
endo-3f KCNH2 (human Ether -à-go-go-Related Gene) Human Antagonist IC50 >50 […]
as §1

[3] = in vitro clearance in the presence of human microsomes; format: in vitro ADME; conditions: IVC testing performed by Cyprotex
From the text: as §2
[38] IVC testing performed by Cyprotex, 15 Beech Lane, Macclesfield, Cheshire, SK10 2DR, UK

KCNH2 (human Ether-à-go-go-Related Gene), sequence (Q12809 whole entry): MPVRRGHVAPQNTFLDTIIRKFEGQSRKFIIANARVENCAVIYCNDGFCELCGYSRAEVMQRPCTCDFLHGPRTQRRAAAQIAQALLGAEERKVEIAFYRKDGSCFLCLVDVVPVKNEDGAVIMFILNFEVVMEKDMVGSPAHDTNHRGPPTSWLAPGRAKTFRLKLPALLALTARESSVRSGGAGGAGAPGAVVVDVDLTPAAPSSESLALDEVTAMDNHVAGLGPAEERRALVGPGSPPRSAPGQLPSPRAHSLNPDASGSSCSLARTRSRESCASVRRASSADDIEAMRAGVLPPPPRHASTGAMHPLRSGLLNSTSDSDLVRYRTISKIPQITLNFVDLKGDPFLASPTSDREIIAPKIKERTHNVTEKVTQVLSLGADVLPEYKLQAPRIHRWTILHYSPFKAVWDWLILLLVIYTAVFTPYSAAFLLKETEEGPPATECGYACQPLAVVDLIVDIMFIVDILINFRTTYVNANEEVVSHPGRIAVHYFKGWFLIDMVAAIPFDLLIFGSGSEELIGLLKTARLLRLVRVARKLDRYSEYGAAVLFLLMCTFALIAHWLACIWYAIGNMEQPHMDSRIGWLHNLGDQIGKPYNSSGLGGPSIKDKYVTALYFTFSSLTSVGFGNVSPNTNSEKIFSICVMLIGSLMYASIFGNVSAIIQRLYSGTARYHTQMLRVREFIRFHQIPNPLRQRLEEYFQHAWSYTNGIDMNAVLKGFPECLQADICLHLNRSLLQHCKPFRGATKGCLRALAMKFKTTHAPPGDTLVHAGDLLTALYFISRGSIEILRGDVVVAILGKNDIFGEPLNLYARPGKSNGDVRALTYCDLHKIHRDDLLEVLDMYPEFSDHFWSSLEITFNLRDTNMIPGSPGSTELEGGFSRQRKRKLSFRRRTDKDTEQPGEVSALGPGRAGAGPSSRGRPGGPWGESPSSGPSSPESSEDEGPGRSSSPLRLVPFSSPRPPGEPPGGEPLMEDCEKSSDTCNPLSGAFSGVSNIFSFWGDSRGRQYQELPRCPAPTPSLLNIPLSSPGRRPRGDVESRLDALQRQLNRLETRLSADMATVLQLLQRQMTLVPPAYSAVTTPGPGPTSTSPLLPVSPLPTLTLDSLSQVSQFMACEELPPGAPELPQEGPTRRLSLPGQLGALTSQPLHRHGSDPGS

SMILES: CCOC1CC2OC1(c1ccccc1)C1C(=O)N(C)C(=O)C21 (stereo not drawn) [compound 7]
- pEC50 [1]: < 4.00
- pIC50 [2]: < 4.30

SMILES: CN1C(=O)C2C3CC(O)C(c4ccccc4)(O3)C2C1=O (stereo not drawn) [compound 10]
- in vitro clearance [3]: < 0.53 mL/min/g
- pEC50 [1]: < 4.00
- pIC50 [2]: < 4.30

SMILES: CCOC1=CC2OC1(c1ccccc1)C1C(=O)N(C)C(=O)C21 (stereo not drawn) [endo-3 f]
- pEC50 [1]: < 4.00
- pIC50 [2]: < 4.30

SMILES: CCOC1=C[C@H]2O[C@]1(c1ccccc1)[C@@H]1C(=O)N(C)C(=O)[C@@H]12 [exo-3 f]
- pEC50 [1]: < 4.00
- pIC50 [2]: < 4.30

— publication PMC4406157, “Irreversible endo-Selective Diels–Alder Reactions of Substituted Alkoxyfurans: A General Synthesis of endo-Cantharimides” (Chemistry (Weinheim an Der Bergstrasse, Germany), 2015)
